pIC50: −log10 of the molar value. Activity calls are given as the source filed them. The calls are words filed in the database; no cut-off is given here.
Tests used:
[1] = tested on: MDA-MB-468; test: Induction of morphological changes in human MDA-MB-468 cells assessed as mesenchymal-epithelial transition at 10 uM by inverted microscopic analysis; type: functional, cell-based
[2] = tested on: MDA-MB-231; test: Antimigratory activity in human MDA-MB-231 cells assessed as wound diameter at 5 uM measured after 24 hrs by microscopic analysis; type: functional, cell-based
[3] = tested on: MDA-MB-468; test: Cell cycle arrest in human MDA-MB-468 cells assessed as accumulation at G2/M phase at 5 uM measured after 48 hrs by propidium iodide staining-based flow cytometric analysis relative to control; type: functional
[4] = tested on: MDA-MB-468; test: Induction of apoptosis in human MDA-MB-468 cells assessed as late apoptotic cells at 8 uM measured after 24 hrs by AnnexinV/7-AAD staining based flow cytometric analysis (reference value: 1.86%); type: functional
[5] = tested on: MCF7; test: Up regulation of pan-cadherin level in human MCF7 cells up to 10 uM by Western blot analysis; type: functional, cell-based
[6] = tested on: MDA-MB-231; test: Antiproliferative activity against human MDA-MB-231 cells assessed as inhibition of cell growth measured after 48 hrs by microplate reader analysis; type: functional, cell-based; settings: MDA-MB-231, 48 h
[7] = tested on: MCF7; test: Antiinvasive activity in human MCF7 cells assessed as reduction in 10% FBS-induced cell invasion at 5 uM by crystal violet staining based matrigel assay relative to control; type: functional
[8] = tested on: MDA-MB-468; test: Induction of apoptosis in human MDA-MB-468 cells assessed as viable cells at 8 uM measured after 48 hrs by AnnexinV/7-AAD staining based flow cytometric analysis (reference value: 92.5%); type: functional; settings: MDA-MB-468, 48 h, read-out: Activity
[9] = tested on: MCF7; test: Antiproliferative activity against human MCF7 cells assessed as inhibition of cell growth measured after 48 hrs by microplate reader analysis; type: functional, cell-based; settings: MCF7, 48 h
[10] = tested on: MDA-MB-468; test: Induction of apoptosis in human MDA-MB-468 cells assessed as viable cells at 8 uM measured after 24 hrs by AnnexinV/7-AAD staining based flow cytometric analysis (reference value: 94.1%); type: functional; settings: MDA-MB-468, 24 h, read-out: Activity
[11] = tested on: MDA-MB-468; test: Antiinvasive activity in human MDA-MB-468 cells assessed as reduction in 10% FBS-induced cell invasion at 5 uM by crystal violet staining based matrigel assay relative to control; type: functional
[12] = tested on: MDA-MB-231; test: Down regulation of FAK level in human MDA-MB-231 cells up to 10 uM by Western blot analysis; type: functional, cell-based
[13] = Toxicity in athymic nude mouse xenografted with human MDA-MB-231 cells assessed as behavioral change at 10 mg/kg, ip administered for 14 days; type: organism-based; settings: in vivo, 336 h
[14] = tested on: MDA-MB-231; test: Inhibition of tumor growth in human MDA-MB-231 cells xenografted in nude mouse; type: functional
[15] = tested on: MCF7; test: Up regulation of E-cadherin level in human MCF7 cells up to 10 uM by Western blot analysis; type: functional, cell-based
[16] = tested on: MDA-MB-231; test: Antimigratory activity in human MDA-MB-231 cells assessed as wound diameter measured after 24 hrs by microscopic analysis (reference value: 29.5 +/- 1.95%); type: functional
[17] = tested on: MDA-MB-231; test: Antitumor activity against human MDA-MB-231 cells xenografted in athymic nude mouse assessed as the reduction in tumor weight at 10 mg/kg, ip dosed 3 times per week for 45 days (reference value: 1.58 +/- 0.283 g); type: functional
[18] = tested on: MDA-MB-231; test: Induction of morphological changes in human MDA-MB-231 cells assessed as mesenchymal-epithelial transition at 10 uM by inverted microscopic analysis; type: functional, cell-based
[19] = tested on: MDA-MB-231; test: Growth inhibition in human MDA-MB-231 cells at 10 uM after 48 hrs by MTT assay; type: functional, cell-based
[20] = tested on: MDA-MB-468; test: Antiproliferative activity against human MDA-MB-468 cells assessed as inhibition of cell growth measured after 48 hrs by microplate reader analysis; type: functional, cell-based; settings: MDA-MB-468, 48 h
[21] = tested on: MDA-MB-231; test: Antiinvasive activity in human MDA-MB-231 cells assessed as reduction in 10% FBS-induced cell invasion at 5 uM by crystal violet staining based matrigel assay relative to control; type: functional; set-up: scale not given: the % may be the effect or the level left
[22] = tested on: MDA-MB-468; test: Inhibition of anchorage-independent colony formation in human MDA-MB-468 cells at 5 uM measured upto 21 days by soft agar colony formation assay; type: functional, cell-based
[23] = Toxicity in athymic nude mouse xenografted with human MDA-MB-231 cells assessed as change in food intake at 10 mg/kg, ip administered measured for 14 days; type: organism-based; settings: in vivo, 336 h
[24] = tested on: MDA-MB-468; test: Induction of apoptosis in human MDA-MB-468 cells assessed as necrotic cells at 8 uM measured after 48 hrs by AnnexinV/7-AAD staining based flow cytometric analysis (reference value: 0.51%); type: functional
[25] = Selectivity index, ratio of LD50 for E6/E7 immortalized human HNME cells to IC50 for human MDA-MB-231 cells
[26] = tested on: MDA-MB-231; test: Antitumor activity against human MDA-MB-231 cells xenografted in athymic nude mouse assessed as the reduction in tumor volume at 10 mg/kg, ip dosed 3 times per week for 45 days (reference value: 1350 mm3); type: functional
[27] = tested on: MDA-MB-231; test: Antitumor activity against human MDA-MB-231 cells xenografted in athymic nude mouse assessed as the inhibition of tumor growth at 10 mg/kg, ip dosed 3 times per week for 45 days relative to control; type: functional; settings: MDA-MB-231, ip, 1080 h
[28] = tested on: MDA-MB-231; test: Up regulation of pan-cadherin level in human MDA-MB-231 cells up to 10 uM by Western blot analysis; type: functional, cell-based
[29] = tested on: MDA-MB-231; test: Antimigratory activity in human MDA-MB-231 cells assessed as inhibition of cell motility after 24 hrs by microscopic analysis; type: functional, cell-based; settings: MDA-MB-231, 24 h
[30] = tested on: MDA-MB-468; test: Induction of apoptosis in human MDA-MB-468 cells assessed as increase in BAX/Bcl2 expression ratio upto 10 uM measured after 48 hrs by western blot analysis; type: functional, cell-based
[31] = tested on: MDA-MB-231; test: Up regulation of E-cadherin level in human MDA-MB-231 cells up to 10 uM by Western blot analysis; type: functional, cell-based
[32] = tested on: MCF7; test: Growth inhibition in human MCF7 cells at 10 uM after 48 hrs by MTT assay; type: functional, cell-based
[33] = tested on: MDA-MB-468; test: Induction of apoptosis in human MDA-MB-468 cells assessed as early apoptotic cells at 8 uM measured after 24 hrs by AnnexinV/7-AAD staining based flow cytometric analysis (reference value: 3.45%); type: functional
[34] = tested on: MCF7; test: Antimigratory activity in human MCF7 cells assessed as inhibition of cell motility after 24 hrs by microscopic analysis; type: functional, cell-based; settings: MCF7, 24 h
[35] = tested on: Chorioallantoic membrane; test: Antiangiogenic activity in Leghorn chicken fertilized egg chorioallantoic membrane assessed as reduction in number of blood vessels at 4 ug measured after 4 days by microscopic analysis relative to control; type: functional, tissue-based; set-up: scale not given: the % may be the effect or the level left; settings: Gallus gallus
[36] = tested on: MDA-MB-468; test: Induction of apoptosis in human MDA-MB-468 cells assessed as early apoptotic cells at 8 uM measured after 48 hrs by AnnexinV/7-AAD staining based flow cytometric analysis (reference value: 4.15%); type: functional
[37] = tested on: MDA-MB-231; test: Inhibition of anchorage-independent colony formation in human MDA-MB-231 cells at 5 uM measured upto 21 days by soft agar colony formation assay; type: functional, cell-based
[38] = Cytotoxicity against E6/E7 immortalized human HNME cells assessed as inhibition of cell growth measured after 48 hrs by microplate reader analysis; type: cell-based; settings: read-out: LD50

COc1cccc(C(=O)/C=C/c2ccc(N(CCCl)CCCl)cc2)c1
Activity [1]: Active | Activity [2]: Active | Activity [3]: 66.45% | Activity [4]: 2.13% | Activity [5]: Active | pIC50 [6]: 5.10 | Activity [7]: Active | viability at 8 µM [8]: 57.3% | pIC50 [9]: 5.19 | viability at 8 µM [10]: 88.2% | Activity [11]: Active | Activity [12]: Active | Activity [13]: Non-Toxic | inhibition (INH) [14]: 57% | Activity [15]: Active | inhibition (INH) [16]: 67.89% | Activity [17]: 0.88 g | Activity [18]: Active | growth inhibition (GI) [19]: Active | pIC50 [20]: 5.14 | Activity [21]: 80% | colony formation inhibition (active/inactive) [22]: Active | Activity [23]: Non-Toxic | Activity [24]: 3.63% | Ratio LD50/IC50 [25]: 2.66 | Activity [26]: 487.26 mm3 | inhibition in vivo at 10 mg/kg [27]: 46.4% | Activity [28]: Active | pIC50 [29]: 5.52 | Activity [30]: Active | Activity [31]: Active | growth inhibition (GI) [32]: Active | Activity [33]: 9.04% | pIC50 [34]: 5.61 | Activity [35]: 60.2% | Activity [36]: 28% | inhibition [37]: Active | CC50 at 48 h [38]: 21.3 µM
